From ChEMBL document CHEMBL1136303, “4-(2-pyridyl)piperazine-1-carboxamides: potent vanilloid receptor 1 antagonists” (Bioorg Med Chem Lett, 2003)

What was measured:
[1] = molecular target: T1, Transient receptor potential cation channel subfamily V member 1 (Rattus norvegicus, UniProt O35433); experiment: Vanilloid receptor subtype 1 antagonist activity based on its ability to block low pH-induced activation of the rat VR1 channel in a HEK293 cell line; type: functional
[2] = molecular target: T1, Transient receptor potential cation channel subfamily V member 1; experiment: Vanilloid receptor subtype 1 antagonist activity based on its ability to block capsaicin-induced (CAP) activation of the rat VR1 channel in a HEK293 cell line; type: functional
[3] = Half life period in rat by iv administration at a dose of 3 mg/kg; type: ADME, organism-based; set-up: dose 3 mg/kg, route intravenous; details: in vivo
[4] = Plasma clearance in rat by iv administration at a dose of 3 mg/kg; type: ADME, organism-based; set-up: dose 3 mg/kg, route intravenous
[5] = Pharmacokinetic (PK) parameter Vz in rat; type: ADME, organism-based; details: in vivo, read-out: Vz
[6] = Tmax in rat by po administration at a dose of 40 mg/kg; type: ADME, organism-based; set-up: dose 40 mg/kg, route oral; details: in vivo
[7] = Oral bioavailability in rat by po administration at a dose of 40 mg/kg; type: ADME, organism-based; details: in vivo
[8] = Cmax in rat by po administration at a dose of 40 mg/kg; type: ADME, organism-based; set-up: dose 40 mg/kg, route oral; details: in vivo

T1 sequence (O35433 whole entry): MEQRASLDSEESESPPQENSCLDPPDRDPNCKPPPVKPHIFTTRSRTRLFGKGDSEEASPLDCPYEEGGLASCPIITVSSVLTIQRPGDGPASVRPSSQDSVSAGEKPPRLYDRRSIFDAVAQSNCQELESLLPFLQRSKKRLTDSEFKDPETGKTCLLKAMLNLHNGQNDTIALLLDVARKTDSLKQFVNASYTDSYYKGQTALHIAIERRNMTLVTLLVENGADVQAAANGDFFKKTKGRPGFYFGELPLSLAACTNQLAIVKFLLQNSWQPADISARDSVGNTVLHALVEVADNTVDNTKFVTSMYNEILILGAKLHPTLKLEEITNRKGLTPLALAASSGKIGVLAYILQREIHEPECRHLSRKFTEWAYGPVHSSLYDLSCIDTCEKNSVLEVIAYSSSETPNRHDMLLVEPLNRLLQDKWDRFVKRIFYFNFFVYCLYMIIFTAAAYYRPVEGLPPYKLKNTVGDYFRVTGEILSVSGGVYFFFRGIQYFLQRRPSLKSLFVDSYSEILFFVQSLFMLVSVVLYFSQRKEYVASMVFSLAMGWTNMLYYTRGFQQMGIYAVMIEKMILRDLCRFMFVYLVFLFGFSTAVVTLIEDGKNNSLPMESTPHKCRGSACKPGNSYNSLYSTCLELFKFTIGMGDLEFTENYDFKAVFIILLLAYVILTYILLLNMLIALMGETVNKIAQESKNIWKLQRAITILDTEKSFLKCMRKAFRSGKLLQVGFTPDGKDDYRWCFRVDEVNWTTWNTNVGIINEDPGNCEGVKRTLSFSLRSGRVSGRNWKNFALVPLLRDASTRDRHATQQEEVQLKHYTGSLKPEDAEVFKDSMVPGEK

SMILES	IC50 [1] [nM]	IC50 [2] [nM]	also measured
CCCc1ccc(NC(=O)N2CCN(c3ncccc3Cl)CC2)cc1	73	41.6	
O=C(Nc1ccc(Br)cc1)N1CCN(c2ncccc2Cl)CC1	1010	491	
CC(C)(C)c1ccc(NC(=O)N2CCN(c3ncccc3C(F)(F)F)CC2)cc1	57.7	11.3	
O=C(Nc1ccc([N+](=O)[O-])cc1)N1CCN(c2ncccc2Cl)CC1	> 25000	1110	
CCc1cccnc1N1CCN(C(=O)Nc2ccc(C(C)C)cc2)CC1	828	230	
O=C(Nc1ccc(Cl)cc1)N1CCN(c2ncccc2Cl)CC1		655	
CC(C)c1ccc(NC(=O)N2CCN(c3ncccc3C(F)F)CC2)cc1	61.5	27.7	
CC(C)c1ccc(NC(=O)N2CCN(c3ncccc3C=O)CC2)cc1	1400	201	
O=C(Nc1ccc(I)cc1)N1CCN(c2ncccc2Cl)CC1	310	285	
Cc1ccc(NC(=O)N2CCN(c3ncccc3C(F)(F)F)CC2)cc1		556	
CC(C)(C)[C@H]1CC[C@H](NC(=O)N2CCN(c3ncccc3Cl)CC2)CC1	17.2	3.9	
CC(C)(C)c1ccc(NC(=O)N2CCN(c3ncccc3Cl)CC2)cc1			half-life [3]: 54 min; clearance [4]: 76.7 mL/min/kg; Vd [5]: 5.8 L/kg; Tmax [6]: 30 min; bioavailability [7]: 15.1%; Cmax [8]: 1120 ng/mL
CCCCc1ccc(NC(=O)N2CCN(c3ncccc3C(F)(F)F)CC2)cc1	5180	1360	
O=C(Nc1ccc(C2CCCCC2)cc1)N1CCN(c2ncccc2Cl)CC1	91.7	29.8	
CC(C)c1ccc(NC(=S)N2CCN(c3ncccc3C(F)(F)F)CC2)cc1	575	872	
O=C(Nc1ccc(OC(F)(F)F)cc1)N1CCN(c2ncccc2Cl)CC1	261	93.2	
CC(C)c1ccc(NC(=O)N2CCN(c3ncccc3[N+](=O)[O-])CC2)cc1	245	190	
CC(C)(C)c1ccc(NC(=S)N2CCN(c3ncccc3C(F)(F)F)CC2)cc1	441	246	
O=C(Nc1ccc(Oc2ccccc2)cc1)N1CCN(c2ncccc2C(F)(F)F)CC1	916	258	
CCC(C)c1ccc(NC(=O)N2CCN(c3ncccc3Cl)CC2)cc1 (stereo not drawn)	23.3	17.4	
O=C(Nc1ccc(C(F)(F)F)cc1)N1CCN(c2ncccc2Cl)CC1	81.4	63.5	
CCc1ccc(NC(=O)N2CCN(c3ncccc3C(F)(F)F)CC2)cc1	121	111	

Now from value to compound, other results behind:

IC50 [1] [nM]	IC50 [2] [nM]	SMILES	also measured
	57.5	CC(C)c1ccc(NC(=O)N2CCN(c3ncccc3C(F)(F)F)CC2)cc1	
278	479	O=C(Nc1ccc2ccccc2c1)N1CCN(c2ncccc2Cl)CC1	
	58	Oc1cc2c(cc1O)CN(C(=S)NCCc1ccc(Cl)cc1)CCC2 [CAPSAZEPINE]	
173	25.3	Cc1cccnc1N1CCN(C(=O)Nc2ccc(C(C)C)cc2)CC1	
27.1	4.6	CC(C)c1ccc(NC(=O)N2CCN(c3ncccc3Br)CC2)cc1	
> 25000	287	CC(C)c1ccc(NC(=O)N2CCN(c3ncccc3C#N)CC2)cc1	
203	117	CCCCc1ccc(NC(=O)N2CCN(c3ncccc3Cl)CC2)cc1	
77.4	56.7	CC(C)c1ccc(NC(=O)N2CCN(c3ncccc3I)CC2)cc1	
	11.5	CC(C)c1ccc(NC(=O)N2CCN(c3ncccc3Cl)CC2)cc1	
56.6	107	CCc1ccc(NC(=O)N2CCN(c3ncccc3Cl)CC2)cc1	
